Reference: patent US8404442B2, “Methods for identification of bone anabolic agents” (New York University, priority 2009, dated 2013)

Assays:
[1] = tested on: Sox2-depleted osteoblasts; test: Rescue of colony forming ability of Sox2-depleted osteoblasts; assay type: cell-based, mouse; settings: 10 μM SB431542
Procedure: For colony formation assay, 0.1×10^6 cells were plated per well in a cluster-6 well plate for 24 hours. The next day, the cells were infected with a retrovirus either encoding eGFP (MSCV-eGFP) or CRE (MSCV-CRE-eGFP) at an MOI of 10, in the presence of 8 μg/ml polybrene. Twenty-four (24) hours after infection, fresh medium was added to the plate and the cells were incubated for an additional 48 hours (72 hours total from the start of infection). The infected cells were then trypsinized and re-plated at a density of 1000 cells/well in a cluster-6 well plate. The plated were incubated for 7-10 days. Green colonies were visualized and counted under a fluorescence microscope. Colonies were fixed in 20% methanol for 15 minutes at room temperature, and counted after staining with 0.5% crystal violet in 20% methanol. We have developed a 96-well format, cell-based screen using two Sox2 foxed cell lines (F/F and F/-). […] The CellTiter-Blue® Cell Viability Assay is a fluorescence-based assay for measuring cell viability, and has an excellent Z′ factor^1. […] After one hour of incubation with the reagent, fluorescence was read using a Wallac Plate Reader (Perkinelmer, Waltham, Mass.). Z′ factor and z score for each plate was calculated for each cell line at different cell plating concentrations as described (28, 29). […]

iPSCs = settings: refs (7,32); cited from earlier work

SMILES: NC(=O)c1ccc(-c2nc(-c3ccc4c(c3)OCO4)c(-c3ccccn3)[nH]2)cc1 [SB431542]
- rescue of loss of colony forming ability [1]: able to rescue to loss of colony forming ability
- bypass of the requirement of Sox2 in reprogramming (iPSCs): bypass the requirement of Sox2 in the reprogramming of iPSCs
